The target in data set [1] is T1, 19 kDa protein of Oplophorus luciferase (Oplophorus gracilirostris, UniProt Q9GV45).
T1 construct: made in house
The data set is described as follows: Substrate specificity, luminescence activity and emission spectra of the 19 kDa protein of Oplophorus luciferase. It is filed as biochemical, Oplophorus gracilorostris. To be noted: for Maximum emission wavelength λmax (nm): 22 to 25° C.; for Luminescence capacity 10 secs. (%): emission integrated for 10 seconds; for Luminescence capacity 10 secs. (%) / Luminescence activity Imax (%): coelenterazine = 100.0.

A further data set has as its target T2, Renilla luciferase (Renilla reniformis, UniProt P27652).
T2 construct: made in house
T2 sequence (P27652 1-311): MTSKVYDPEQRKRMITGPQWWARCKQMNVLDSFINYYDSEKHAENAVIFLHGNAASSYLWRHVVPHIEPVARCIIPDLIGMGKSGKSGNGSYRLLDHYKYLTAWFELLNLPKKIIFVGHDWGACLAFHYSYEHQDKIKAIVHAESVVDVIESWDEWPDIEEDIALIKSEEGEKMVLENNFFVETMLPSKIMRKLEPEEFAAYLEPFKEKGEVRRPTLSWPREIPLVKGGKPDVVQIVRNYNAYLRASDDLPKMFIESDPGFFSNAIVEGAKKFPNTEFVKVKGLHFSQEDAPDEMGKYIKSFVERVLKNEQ
The data set is described as follows: Substrate specificity, luminescence activity and emission spectra of Renilla luciferase. It is filed as biochemical. To be noted: for Maximum emission wavelength λmax (nm) / Luminescence activity Imax (%) / Luminescence capacity 10 secs. (%): Renilla luciferase; for Maximum emission wavelength λmax (nm): 22 to 25° C.; for Luminescence activity Imax (%) / Luminescence capacity 10 secs. (%): coelenterazine = 100.0; for Ability to act as substrate for Renilla luciferase: TABLE 4. The text has this: Res. Commun. (1997) 233: 349-353, which was provided for use.

The target of data set [2] is T3, recombinant apoaequorin (Aequorea victoria, UniProt P07164). The data set is described as follows: Luminescence patterns and half decay time of semi-synthetic aequorins. It is filed as biochemical. Further details: purchased Chisso Corporation. To be noted: for Half decay time sec.: semi-synthetic aequorin, time to reach half of the maximum luminescence intensity. As for the experimental part:
The dilution was dispensed into a 96-well microplate (Nunc #236108) in 5 μl/well. […] The luminescence patterns for 60 seconds were measured to determine the half decay time of luminescence (time period to reach the half of the maximum luminescence intensity).

The target of data set [3] is T3, recombinant apoaequorin. The data set is described as follows: Calcium standard curve with semi-synthetic aequorins. It is filed as biochemical. Further details: purchased Chisso Corporation. To be noted: Imax versus 10^-3 M to 10^-8 M calcium. The procedure:
The dilution series was prepared by the serial process above to prepare standard calcium solution of 10^−3 M to 10^−8 M.
The semi-synthetic aequorin obtained was concentrated using Amicon Ultra-4 (manufactured by Millipore, molecular weight cut off, 10.000).
This semi-synthetic aequorin solution (2.5 mg/ml) was diluted with 20 mM Tris-HCl (pH 7.6) containing 0.1% BSA (manufactured by Sigma), 0.01 mM EDTA and 150 mM NaCl.
The calcium standard solution prepared as described above was dispensed into a 96-well microplate (Nunc #236108) in 50 μl/well, and the semi-synthetic aequorin solution diluted was injected in […]. The luminescence intensity was measured for 60 seconds using a luminescence plate reader Centro LB960 (manufactured by Berthold) and expressed in terms of the maximum luminescence intensity (Imax). The luminescence intensity was measured for each semi-synthetic aequorin in the same fashion. Based on the maximum luminescence intensity (Imax) obtained, the calcium standard curve for each semi-synthetic aequorin was prepared.

The target in data set [4] is T3, recombinant apoaequorin. Description: Emission spectra of semi-synthetic aequorins by addition of calcium ions. To be noted: for Emission spectra of semi-synthetic aequorins compared with known analogs (FIG. 3): compared to h-CTZ and i-CTZ; for Maximum emission wavelength λmax (nm): semi-synthetic aequorin, 22 to 25° C.
Protocol: In a quartz cell with an optical path length of 10 mm, 1 ml of 50 mM Tris-HCl (pH 7.6) containing 1 mM EDTA and 100 μl (100 μg protein) of a solution of the regenerated semi-synthetic aequorin were charged and they were mixed. Subsequently, 100 μl of 50 mM Tris-HCl (pH 7.6) containing 0.1 ml of 10 mM calcium chloride solution was added to the mixture to trigger the luminescence reaction. The spectra were measured on a spectrofluorimeter (FP-6500, manufactured by JASCO Corporation) with the excitation source turned off. The measurement conditions used were as follows: band width, 20 nm; response, 0.5 second and scan speed, 2000 nm/min at 22 to 25° C.
A further data set has as its system Gaussia luciferase. The data set is described as follows: Substrate specificity, luminescence activity and emission spectra of Gaussia luciferase. To be noted: for Luminescence activity Imax (%) / Luminescence capacity 10 secs. (%): Gaussia luciferase, coelenterazine = 100.0.
The target of data set [5] is T3, recombinant apoaequorin. Description: Production of semi-synthetic aequorins and measurement of luminescence activity (Imax, luminescence capacity). To be noted: for Ability to act as luminescence substrate for semi-synthetic aequorins (FIG. 1): regeneration 0.5 to 18 hours at 4° C.; for Luminescence activity Imax (%) / Luminescence capacity 60 sec (%): semi-synthetic aequorin, coelenterazine = 100.0; for Luminescence activity Imax (%): Ca2+-triggered, maximum intensity; for Luminescence capacity 60 sec (%): emission integrated for 60 seconds.
Protocol: In order to confirm the regeneration time and regeneration efficiency from apoaequorin to the semi-synthetic aequorin, the luminescence activity was assayed at the respective points of the regeneration process (at the respective points of 0.5, 1, 1.5, 2, 3 and 18 hours from the start of regeneration).
Specifically, the luminescence activity described above was measured as follows. The luminescence reaction was started by adding 100 μl of 50 mM Tris-HCl (pH 7.6) containing 50 mM calcium chloride solution to 2 μl of a solution of the semi-synthetic aequorin at each regeneration process. The luminescence activity was measured for 10 seconds with a luminometer Luminescencer-PSN AB2200 (manufactured by Atto Co., Ltd.). The measured values were represented as the maximum intensity (Imax) of luminescence. The emission for 60 seconds was integrated, which was made a luminescence capacity.

One may read the melting point as the temperature of the solid-liquid transition.

T3 sequence (P07164 other isoform, or with tags, fused parts or gaps with the stated changes): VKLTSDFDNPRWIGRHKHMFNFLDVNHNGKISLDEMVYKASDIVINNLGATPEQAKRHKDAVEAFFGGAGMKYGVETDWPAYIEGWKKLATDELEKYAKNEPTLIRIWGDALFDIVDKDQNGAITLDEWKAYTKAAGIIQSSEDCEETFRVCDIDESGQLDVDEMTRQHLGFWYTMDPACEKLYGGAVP
T1 sequence (Q9GV45 28-196): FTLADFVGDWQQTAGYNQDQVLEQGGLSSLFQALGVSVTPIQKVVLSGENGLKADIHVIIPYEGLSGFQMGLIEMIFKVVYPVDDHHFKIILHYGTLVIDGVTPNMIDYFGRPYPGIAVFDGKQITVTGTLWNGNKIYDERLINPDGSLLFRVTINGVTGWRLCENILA
Protocol for Gaussia luciferase: The luminescence activity was measured for 10 seconds using a luminometer Luminescencer-PSN AB2200 (manufactured by Atto Co., Ltd.). The luminescence activity was measured 3 times and expressed as the maximum intensity (Imax) of luminescence.

`COc1cccc(Cc2nc3c(Cc4ccccc4)[nH]c(-c4ccc(O)cc4)cn-3c2=O)c1` [3meo-CTZ, 3meo-coelenterazine]: the melting point is 136 to 140 °C (dec.). In addition, in data set [1] (Oplophorus luciferase), the “Maximum emission wavelength λmax (nm)” value was 455.5 nm, the “Luminescence capacity 10 secs. (%)” value is listed as 204.7% and the “Luminescence activity Imax (%)” value is 189.1%. Besides, in data set [1] (Oplophorus luciferase, TABLE 2), the “Luminescence activity and/or capacity compared to known h-CTZ” value was “high luminescence activity and/or luminescence capacity”. In data set [1] (TABLE 2), the “Quality as luminescence substrate for Oplophorus luciferase” value (“Quality … for Oplophorus luciferase” below) is listed as “relatively good luminescence substrates”. Further, on Renilla luciferase, the “Maximum emission wavelength λmax (nm)” value is 473.5 nm, the “Luminescence activity Imax (%)” value was 26.0%, the “Luminescence capacity 10 secs. (%)” value came to 31.6% and the “Ability to act as substrate for Renilla luciferase” value is on record as “can be substrates for Renilla luciferase”. At recombinant apoaequorin [2], the “Half decay time sec.” value was found to be 0.52 s. Besides, at recombinant apoaequorin [3], the “Calcium standard curve with semi-synthetic aequorin (FIG. 4)” value (from here on “Calcium standard curve”) was “calcium standard curves can be prepared”. In addition, at recombinant apoaequorin [4], the “Emission spectra of semi-synthetic aequorins compared with known analogs (FIG. 3)” value was “exhibit different emission spectra from those of known coelenterazine analogs” and the “Maximum emission wavelength λmax (nm)” value came out at 466.0 nm. Further, in the data set on Gaussia luciferase, the “Luminescence activity Imax (%)” value turned out to be 3.8% and the “Luminescence capacity 10 secs. (%)” value came out at 3.1%. In addition, the “Ability to act as luminescence substrate for semi-synthetic aequorins (FIG. 1)” value (“Ability to act as luminescence substrate” below) on recombinant apoaequorin [5] was “can be luminescence substrates for semi-synthetic aequorins”.
Take “i-coelenterazine [i-CTZ, reference compound]”: the results for the “Maximum emission wavelength λmax (nm)” value (in data set [1] (Oplophorus luciferase); on Renilla luciferase; at recombinant apoaequorin [4]) were 450.0 nm, 473.0 nm and 472.0 nm, respectively. Besides, the “Luminescence capacity 10 secs. (%)” value came out at 53.8% in data set [1] (Oplophorus luciferase), 0.3% on Renilla luciferase and 1.3% in the data set with Gaussia luciferase. The “Luminescence activity Imax (%)” value worked out at 32.3% in data set [1] (Oplophorus luciferase), 0.2% on Renilla luciferase, 0.9% in the data set on Gaussia luciferase and 5.0% on recombinant apoaequorin [5]. Moreover, the “Half decay time sec.” value at recombinant apoaequorin [2] was 11.42 s. Moreover, at recombinant apoaequorin [5], the “Luminescence capacity 60 sec (%)” value is listed as 65.3%.
On to `Cc1ccc(Cc2nc3c(Cc4ccccc4)[nH]c(-c4ccc(O)cc4)cn-3c2=O)cc1` [me-CTZ, me-coelenterazine], for which the melting point was 150 to 152 °C (dec.). In data set [1] (Oplophorus luciferase), the “Maximum emission wavelength λmax (nm)” value was determined as 454.4 nm, the “Luminescence capacity 10 secs. (%)” value was 82.7% and the “Luminescence activity Imax (%)” value is reported as 46.6%. Further, in data set [1] (TABLE 2), the “Quality … for Oplophorus luciferase” value is reported as “relatively good luminescence substrates”. In addition, at Renilla luciferase, the “Maximum emission wavelength λmax (nm)” value worked out at 472.0 nm, the “Luminescence activity Imax (%)” value stood at 6.6%, the “Luminescence capacity 10 secs. (%)” value is listed as 7.0% and the “Ability to act as substrate for Renilla luciferase” value was “can be substrates for Renilla luciferase”. The “Half decay time of luminescence compared with CTZ” value on recombinant apoaequorin [2] (semi-synthetic aequorin (FIG. 2, TABLE 1)) is “longer than CTZ”. For the same compound, the “Half decay time sec.” value on recombinant apoaequorin [2] worked out at 5.00 s. Moreover, the “Calcium standard curve” value at recombinant apoaequorin [3] is recorded as “calcium standard curves can be prepared”. Besides, at recombinant apoaequorin [4], the “Emission spectra of semi-synthetic aequorins compared with known analogs (FIG. 3)” value is given as “exhibit different emission spectra from those of known coelenterazine analogs” and the “Maximum emission wavelength λmax (nm)” value is on record as 469.5 nm. In the data set on Gaussia luciferase, the “Luminescence activity Imax (%)” value worked out at 4.5% and the “Luminescence capacity 10 secs. (%)” value stood at 5.9%. The “Quality as luminescence substrate for Gaussia luciferase” value with Gaussia luciferase (TABLE 3) is “effective luminescence substrates”. Also, the “Ability to act as luminescence substrate” value on recombinant apoaequorin [5] is recorded as “can be luminescence substrates for semi-synthetic aequorins”.
For `CC(c1ccccc1)c1nc2c(Cc3ccccc3)[nH]c(-c3ccc(O)cc3)cn-2c1=O` (centres unmarked) [αmeh-CTZ, αmeh-coelenterazine], the melting point was 143 to 145 °C (dec.). In data set [1] (Oplophorus luciferase), the “Maximum emission wavelength λmax (nm)” value was 457.0 nm, the “Luminescence capacity 10 secs. (%)” value is on record as 19.0% and the “Luminescence activity Imax (%)” value was determined as 15.6%. Further, the “Quality … for Oplophorus luciferase” value in data set [1] (TABLE 2) was “relatively good luminescence substrates”. In addition, at Renilla luciferase, the “Luminescence activity Imax (%)” value turned out to be 0.0% and the “Luminescence capacity 10 secs. (%)” value is 0.0%. Besides, on recombinant apoaequorin [2], the “Half decay time sec.” value was determined as 0.35 s. In addition, the “Calcium standard curve” value at recombinant apoaequorin [3] is “calcium standard curves can be prepared”. Moreover, the “Maximum emission wavelength λmax (nm)” value at recombinant apoaequorin [4] is 467.5 nm. Further, in the data set on Gaussia luciferase, the “Luminescence activity Imax (%)” value is over 0.01% and the “Luminescence capacity 10 secs. (%)” value was over 0.01%. In addition, the “Ability to act as luminescence substrate” value at recombinant apoaequorin [5] was “can be luminescence substrates for semi-synthetic aequorins”.
“n-coelenterazine [n-CTZ, reference compound]”: the “Half decay time sec.” value at recombinant apoaequorin [2] worked out at 4.71 s. The “Maximum emission wavelength λmax (nm)” value at recombinant apoaequorin [4] is recorded as 467.0 nm. Further, on recombinant apoaequorin [5], the “Luminescence activity Imax (%)” value is reported as 3.6% and the “Luminescence capacity 60 sec (%)” value came to 24.0%.
For the compound `Oc1ccc(-c2cn3c(O)c(Cc4ccccc4)nc3c(Cc3ccccc3)n2)cc1` [h-CTZ, h-coelenterazine, reference compound], the “Maximum emission wavelength λmax (nm)” value in data set [1] (Oplophorus luciferase) stood at 456.5 nm; on Renilla luciferase, 472.5 nm; at recombinant apoaequorin [4], 465.5 nm. The “Luminescence capacity 10 secs. (%)” value in data set [1] (Oplophorus luciferase) stood at 110.2%; at Renilla luciferase, 90.3%; in the data set on Gaussia luciferase, 7.2%. For the same compound, the “Luminescence activity Imax (%)” value is 68.4% in data set [1] (Oplophorus luciferase), 78.6% on Renilla luciferase, 5.8% with Gaussia luciferase and 87.9% at recombinant apoaequorin [5]. The “Half decay time sec.” value at recombinant apoaequorin [2] is 0.69 s. The “Luminescence capacity 60 sec (%)” value on recombinant apoaequorin [5] is reported as 70.1%.
In the case of “coelenterazine [CTZ, reference compound]”, the “Maximum emission wavelength λmax (nm)” value in data set [1] (Oplophorus luciferase) was 457.0 nm; at Renilla luciferase, 472.5 nm; at recombinant apoaequorin [4], 465.5 nm. In addition, the “Luminescence capacity 10 secs. (%)” value (in data set [1] (Oplophorus luciferase); on Renilla luciferase; in the data set with Gaussia luciferase) was 100.0% throughout. Moreover, the “Luminescence activity Imax (%)” value (in data set [1] (Oplophorus luciferase); at Renilla luciferase; in the data set with Gaussia luciferase; at recombinant apoaequorin [5]) was 100.0% throughout. Also, the “Half decay time sec.” value at recombinant apoaequorin [2] was found to be 0.81 s. The “Luminescence capacity 60 sec (%)” value on recombinant apoaequorin [5] is on record as 100.0%.
In the case of et-coelenterazine [et-CTZ], in data set [1] (Oplophorus luciferase), the “Maximum emission wavelength λmax (nm)” value is on record as 454.0 nm, the “Luminescence capacity 10 secs. (%)” value came to 39.5% and the “Luminescence activity Imax (%)” value turned out to be 21.1%. Moreover, the “Quality … for Oplophorus luciferase” value in data set [1] (TABLE 2) was “relatively good luminescence substrates”. In addition, at Renilla luciferase, the “Maximum emission wavelength λmax (nm)” value stood at 471.0 nm, the “Luminescence activity Imax (%)” value turned out to be 0.5% and the “Luminescence capacity 10 secs. (%)” value was found to be 0.3%. For the same compound, the “Half decay time sec.” value on recombinant apoaequorin [2] is 1.21 s. Further, the “Calcium standard curve” value on recombinant apoaequorin [3] is listed as “calcium standard curves can be prepared”. Also, on recombinant apoaequorin [4], the “Emission spectra of semi-synthetic aequorins compared with known analogs (FIG. 3)” value was “exhibit different emission spectra from those of known coelenterazine analogs” and the “Maximum emission wavelength λmax (nm)” value was 472.0 nm. In addition, in the data set with Gaussia luciferase, the “Luminescence activity Imax (%)” value is given as 0.9% and the “Luminescence capacity 10 secs. (%)” value was 1.1%. Moreover, on recombinant apoaequorin [5], the “Ability to act as luminescence substrate” value is recorded as “can be luminescence substrates for semi-synthetic aequorins”, the “Luminescence activity Imax (%)” value is reported as 27.3% and the “Luminescence capacity 60 sec (%)” value is 44.1%.
